Measurements reported in article PMC3638464, “The transcriptional regulator CprK detects chlorination by combining direct and indirect readout mechanisms” (Philosophical Transactions of the Royal Society B: …, 2013).

Assays:
[1] = molecular target: CprK (Desulfitobacterium hafniense, UniProt B8FW11, C200S); experiment: cell-based; assay type: cell-based; conditions: for increase in fluorescence levels (in words): in vivo reporter; for increase in fluorescence levels (in words) / n (Hill coefficient): CprK C200S; for apparent Kd / n (Hill coefficient): in vivo, Hill fit; for apparent Kd: E. coli JM109 DE3, pGFPUV-DB7 + CprK C200S, effector concentration at half Fmax
CprK (Desulfitobacterium hafniense, UniProt B8FW11, C200S), sequence (B8FW11 entry or part of it C200S): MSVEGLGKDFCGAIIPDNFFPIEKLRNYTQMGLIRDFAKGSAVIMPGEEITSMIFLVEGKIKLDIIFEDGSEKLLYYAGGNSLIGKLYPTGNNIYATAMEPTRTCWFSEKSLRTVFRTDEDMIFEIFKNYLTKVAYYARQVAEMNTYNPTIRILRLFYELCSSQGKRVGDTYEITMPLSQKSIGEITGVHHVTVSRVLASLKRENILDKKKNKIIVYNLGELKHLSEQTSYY
Description: Previous studies have shown that OCPA-dependent transcriptional activation by CprK can be monitored in Escherichia coli. To avoid any effects coupled to the redox state of the cell, we used a CprK C200S mutant as the basis for all our studies (referred to hereafter as CprK), as it was previously shown that oxidative disulfide bond formation involving C200 inactivates the regulator [23]. A region comprising 123 nucleotides of the upstream dehalobox promotor region of CprA1, containing CprK binding element dehalobox 7 (DB7), was cloned into pGFPUV in order to create a novel in vivo reporter system that makes use of an optimized variant of the green fluorescent protein (GFPUV) from Aequorea victoria. […] No significant increase in fluorescence levels could be detected in the presence of OCPA or similar compounds. […] By contrast, addition of 0.6 μM OCPA to the media leads to a nearly 10-fold increase in fluorescence levels, indicating CprK-mediated, OCPA-dependent transcriptional activation of the GFPUV gene occurs within the E. coli host. […] Our apparent Kd is the binding constant calculated as the concentration at which effector induces half Fmax (maximum fluorescence). […] In contrast to the direct measurement of formation of the CprK : OCPA complex for the in vitro experiment, the in vivo data probably report on the formation of the (CprK : OCPA : dehalobox : RNA polymerase) quaternary complex. […] It appears that under the conditions used for the pGFPUV-DB7-based system, the apparent Kd for OCPA is approximately 100-fold smaller than the established […] Kd values. […] It is important to keep in mind that transport processes could affect the intracellular OCPA concentrations across the membrane, although it would seem logical to assume this would affect OCPA and OCPA-like components in a similar manner. To confirm the apparent Kd value observed reflects inherent CprK affinity for the effector molecule, we measured the increase in fluorescence levels for a range of aromatic compounds.
(§1) Overnight culture (150 μl) was plated onto 96-well optical bottom plates (Nunc). OCPA-related compounds (table 3) were then added to various end concentrations, and the plates placed on a rotary shaker at 37°C for 3 h. GFP fluorescence levels were measured using a Synergy HT microplate reader (BioTek) using a 400 nm, 30 nm bandpass excitation filter and a 508 nm, 20 nm bandpass emission filter. Data were collected using Gen5 v. 1.05 (Biotek) software. Fluorescence was normalized against cell density and measured by absorbance at 600 nm. The fluorescence ratio was plotted against effector concentration, and apparent Kd of binding was calculated using nonlinear curve fitting to a Hill plot.

[2] = assigned value, source not stated; cited from earlier work
[3] = molecular target: CprK G85P (Desulfitobacterium hafniense, UniProt B8FW11, C200S/G85P); experiment: In vivo GFPUV-DB7 reporter assay, G85P CprK mutant; assay type: cell-based
CprK G85P, sequence (B8FW11 entry or part of it G85P/C200S): as the sequence (B8FW11 entry or part of it C200S) above, with G85P counted along it
Method: (§2) Table 1 and figure 3 show the dependence of fluorescence levels on OCPA concentrations for Y76F, G85A, G85P and K133L CprK mutants. […] Compared with the apparent Kd of WT CprK (0.019 ± 0.002 μM) for OCPA, the Y76F mutant has an approximately 500-fold decreased affinity for OCPA. The G85P mutation leads to an even more dramatic 4500-fold decrease, but this is probably not only a consequence of removal of the backbone NH hydrogen bond, but also because of the increased size and restricted conformational freedom of the proline side chain. […] While mutations at position 76 or 85 retain some activity, mutation at position 133 leads to a complete loss of transcriptional activation response. This clearly establishes K133 as the key contributor to the polar network established with the phenol moiety.
as §1, with “OCPA-related compounds (table 3) were then added to various end concentrations, and the plates placed on a rotary shaker at 37°C for 3 h.” left out, “Data were collected using Gen5 v. 1.05 (Biotek) software.” left out

[4] = molecular target: CprK Y76F (Desulfitobacterium hafniense, UniProt B8FW11, C200S/Y76F); experiment: In vivo GFPUV-DB7 reporter assay, Y76F CprK mutant; assay type: cell-based
CprK Y76F (Desulfitobacterium hafniense, UniProt B8FW11, C200S/Y76F), sequence (B8FW11 entry or part of it Y76F/C200S): as the sequence (B8FW11 entry or part of it C200S) above, with Y76F counted along it
Method: as §2
as §1, with “OCPA-related compounds (table 3) were then added to various end concentrations, and the plates placed on a rotary shaker at 37°C for 3 h.” left out, “Data were collected using Gen5 v. 1.05 (Biotek) software.” left out

[5] = tested on: CprK Y76F; parameters: method as in PMID 16803881; conditions: previous study; cited from earlier work
[6] = tested on: CprK; conditions: cited from earlier work
[7] = molecular target: CprK G85A (Desulfitobacterium hafniense, UniProt B8FW11, C200S/G85A); experiment: In vivo GFPUV-DB7 reporter assay, G85A CprK mutant; assay type: cell-based
CprK G85A, sequence (B8FW11 entry or part of it G85A/C200S): as the sequence (B8FW11 entry or part of it C200S) above, with G85A counted along it
Method: as §2
as §1, with “OCPA-related compounds (table 3) were then added to various end concentrations, and the plates placed on a rotary shaker at 37°C for 3 h.” left out, “Data were collected using Gen5 v. 1.05 (Biotek) software.” left out

[8] = tested on: CprK K133L; experiment: In vivo GFPUV-DB7 reporter assay, K133L CprK mutant; assay type: cell-based, Desulfitobacterium hafniense
Method: as §2
as §1, with “OCPA-related compounds (table 3) were then added to various end concentrations, and the plates placed on a rotary shaker at 37°C for 3 h.” left out, “Data were collected using Gen5 v. 1.05 (Biotek) software.” left out

Row | SMILES | apparent Kd ([1]; 3 h) | n (Hill coefficient) [1] | pKa value of R1 (phenol –OH) [2] | also measured
1 | Nc1ccc([N+](=O)[O-])cc1Cl [2-chloro-4-nitroaniline] | no binding | – | – | increase in fluorescence levels (in words) [1]: No increase
2 | O=C(O)Cc1ccc(O)c(Br)c1 [3-bromo-4-hydroxyphenylacetic acid] | – | 3.2 ± 0.5 | –OH (8.5) | –
3 | O=C(O)Cc1ccc(O)cc1 [HPA, 4-hydroxyphenylacetic acid] | – | 2.1 ± 0.2 | –OH (10.2) | –
4 | Nc1ccc([N+](=O)[O-])cc1 [4-nitroaniline] | no binding | – | – | –
5 | O=C(O)Cc1cccc(Cl)c1 [3-chloro-phenylacetic acid] | no binding | – | – | increase in fluorescence levels (in words) [1]: No increase
6 | O=C(O)Cc1ccc(O)c(Cl)c1 [OCPA, 3-chloro-4-hydroxyphenylacetic acid] | – | 2.0 ± 0.2 | –OH (8.5) | Kd [3]: 86.7 ± 5.8 µM; n (Hill coefficient) ([3]; in vivo, G85P mutant): 1.9 ± 0.3; fold induction at 0.6 µM ([1]; 3 h, read-out: increase in fluorescence levels): ~10; apparent Kd smaller than established Kd values ([1]; pGFPUV-DB7 system vs earlier Kd values): approximately 100 fold; Kd [4]: 10.2 ± 0.9 µM; n (Hill coefficient) ([4]; in vivo, Y76F mutant): 1.6 ± 0.1; decrease in the Kd caused by the Y76F mutation [5]: approximately 10 fold; increase of CprK affinity in the presence of a DNA promoter fragment [6]: approximately 10 fold; difference in affinity between OCPA and HPA ([6]; estimated from indirect in vitro measurements): ~10^4; Kd ([6]; previously reported in vitro): 0.8 to 3.5 µM; Kd [7]: 1.03 ± 0.06 µM; n (Hill coefficient) ([7]; in vivo, G85A mutant): 1.5 ± 0.1; transcriptional activation response (in words) [8]: complete loss; Kd (apparent) ([8]; in vivo): no response
7 | O=[N+]([O-])c1ccc(O)cc1 [4-nitrophenol] | – | 2.8 ± 0.2 | –OH (7.2) | –
8 | O=[N+]([O-])c1ccc(O)c(Br)c1 [2-bromo-4-nitrophenol] | – | 2.1 ± 0.1 | –OH (5.5) | –
9 | O=[N+]([O-])c1ccc(O)c(Cl)c1 [2-chloro-4-nitrophenol] | – | 1.7 ± 0.2 | – | –
10 | O=C(O)Cc1ccc(O)c(F)c1 [3-fluoro-4-hydroxyphenylacetic acid] | – | 1.8 ± 0.2 | –OH (8.8) | –
11 | Cc1cc([N+](=O)[O-])ccc1N [2-methyl-4-nitroaniline] | no binding | – | – | –
12 | O=[N+]([O-])c1ccc(O)c(F)c1 [2-fluoro-4-nitrophenol] | – | 4.7 ± 0.6 | –OH (5.7) | –
13 | Cc1cc([N+](=O)[O-])ccc1O [2-methyl-4-nitrophenol] | – | 1.8 ± 0.1 | –OH (7.4) | difference between o-methyl-p-nitrophenol and p-nitrophenol (apparent Kd) ([1]; apparent in vivo Kd): approximately sevenfold
